# Reference: patent US8178506B2, “Oligomeric compounds and compositions for use in modulation of small non-coding RNAs” (Regulus Therapeutics Inc., priority 2003, dated 2012)
# In the oligonucleotide strings, read from the 5' end, every base follows the letter of its sugar. An asterisk marks phosphorothioate; unmarked linkages are phosphodiester. Other units and linkages are bracketed, terminal groups are in braces. A string of capitals states the bases alone. e = 2'-O-(2-methoxyethyl) (MOE); [5mC] = 5-methylcytosine
# What was measured:
# HuVECs = experiment: Endothelial tube formation assay in HuVECs; conditions: 75 nM oligomeric compound
# Glut4 = Glut4 mRNA expression in adipocytes (real-time PCR); assay type: cell-based, human; conditions: for Glut4 (mRNA expression): adipocytes, 250 nM oligomeric compound, day nine post-transfection, relative to control (1.0)
# PPARγ = PPARγ mRNA expression in adipocytes (real-time PCR); assay type: cell-based, human; conditions: for PPAR gamma mRNA: differentiating adipocytes transfected with oligomeric compound; for PPAR-gamma mRNA: differentiating adipocytes day 10 post-induction, 24 hours after treatment; for PPAR gamma (mRNA expression): adipocytes, 250 nM oligomeric compound, day nine post-transfection, relative to control (1.0)
# aP2 = aP2 mRNA expression in adipocytes (real-time PCR); assay type: cell-based, human; conditions: for aP2 mRNA: Table 75; for AP2 (mRNA expression): adipocytes, 250 nM oligomeric compound, day nine post-transfection, relative to control (1.0)
# HSL = HSL mRNA expression in adipocytes (real-time PCR); assay type: cell-based, human; conditions: for HSL (mRNA expression): adipocytes, 250 nM oligomeric compound, day nine post-transfection, relative to control (1.0)
# adipocytes = experiment: Triglyceride accumulation assay in adipocytes; assay type: cell-based, human; conditions: for Triglycerides: differentiating adipocytes day 10 post-induction, 24 hours after treatment
# [1] = differentiating adipocytes transfected with oligomeric compound, Table 75
# [2] = differentiating adipocytes transfected with oligomeric compound
# [3] = 50 nM, differentiating adipocytes day 10 post-induction, 24 hours after treatment
# [4] = 100 nM, differentiating adipocytes day 10 post-induction, 24 hours after treatment
# [5] = 200 nM, differentiating adipocytes day 10 post-induction, 24 hours after treatment
# [6] = 300 nM, differentiating adipocytes day 10 post-induction, 24 hours after treatment
# [7] = Table 20, adipocyte differentiation assay as in Example 13
# [8] = adipocytes, 250 nM oligomeric compound, relative to control (1.0), Table 15
# [9] = adipocytes, 250 nM oligomeric compound, relative to control (1.0), Table 16
substance,measurement,setting,value
327920 (antisense eG*eA*eG*eA*e[5mC]*e[5mC]*e[5mC]*eA*eG*eT*eA*eG*e[5mC]*e[5mC]*eA*eG*eA*eT*eG*eT*eA*eG*e[5mC]*eT) [compound 327920],% Activity Relative to UTC (tube formation),HuVECs; Table 57,41.4%
same,GLUT4 mRNA,Glut4; [1],0 percentage of untreated control (UTC)
same,PPAR gamma mRNA,PPARγ; Table 75,34 percentage of untreated control (UTC)
same,aP2 mRNA,aP2; [2],22 percentage of untreated control (UTC)
same,HSL mRNA,HSL; [1],14 percentage of untreated control (UTC)
same,TG (triglyceride accumulation),adipocytes; [1],20 percentage of untreated control (UTC)
327901 (antisense eT*eG*eA*eG*e[5mC]*eT*eA*e[5mC]*eA*eG*eT*eG*e[5mC]*eT*eT*e[5mC]*eA*eT*e[5mC]*eT*e[5mC]*eA) [compound 327901],% Activity Relative to UTC (tube formation),HuVECs; Table 57,48.3%
same,% Activity Relative to UTC (tube formation),HuVECs; Table 59,100.0%
same,GLUT4 mRNA,Glut4; [3],74.2 % UTC
same,GLUT4 mRNA,Glut4; [4],49.7 % UTC
same,GLUT4 mRNA,Glut4; [5],32.8 % UTC
same,GLUT4 mRNA,Glut4; [6],17.4 % UTC
same,Glut4,Glut4; [7],0.19
same,Glut4 (mRNA expression),Glut4; Table 15,0.19
same,Glut4 (mRNA expression),Glut4; Table 16,0.29
same,PPAR-gamma mRNA,PPARγ; 50 nM,74.6 % UTC
same,PPAR-gamma mRNA,PPARγ; 100 nM,70.8 % UTC
same,PPAR-gamma mRNA,PPARγ; 200 nM,51.8 % UTC
same,PPAR-gamma mRNA,PPARγ; 300 nM,39.3 % UTC
same,PPAR gamma,PPARγ; [7],0.30
same,PPAR gamma (mRNA expression),PPARγ; Table 15,0.30
same,PPAR gamma (mRNA expression),PPARγ; Table 16,0.72
same,AP2 mRNA,aP2; [3],78.3 % UTC
same,AP2 mRNA,aP2; [4],64.6 % UTC
same,AP2 mRNA,aP2; [5],39.0 % UTC
same,AP2 mRNA,aP2; [6],22.4 % UTC
same,AP2,aP2; [7],0.42
same,AP2 (mRNA expression),aP2; Table 15,0.42
same,AP2 (mRNA expression),aP2; Table 16,0.47
same,HSL mRNA,HSL; [3],89.5 % UTC
same,HSL mRNA,HSL; [4],73.5 % UTC
same,HSL mRNA,HSL; [5],40.2 % UTC
same,HSL mRNA,HSL; [6],11.9 % UTC
same,HSL,HSL; [7],0.33
same,HSL (mRNA expression),HSL; Table 15,0.33
same,HSL (mRNA expression),HSL; Table 16,0.47
same,Triglycerides,adipocytes; 50 nM,85.3 % UTC
same,Triglycerides,adipocytes; 100 nM,68.9 % UTC
same,Triglycerides,adipocytes; 200 nM,34.0 % UTC
same,Triglycerides,adipocytes; 300 nM,23.0 % UTC
same,TG,adipocytes; [7],0.54
same,TG (triglyceride accumulation),adipocytes; [8],0.54
same,TG (triglyceride accumulation),adipocytes; [9],0.53
327931 (antisense eA*eA*e[5mC]*e[5mC]*eA*eT*eA*e[5mC]*eA*eA*e[5mC]*e[5mC]*eT*eA*e[5mC]*eT*eA*e[5mC]*e[5mC]*eT*e[5mC]*eA) [compound 327931],% Activity Relative to UTC (tube formation),HuVECs; Table 58,103.7%
same,Glut4 (mRNA expression),Glut4; Table 16,1.37
same,PPAR gamma (mRNA expression),PPARγ; Table 16,1.56
same,AP2 (mRNA expression),aP2; Table 16,1.00
same,HSL (mRNA expression),HSL; Table 16,0.99
same,TG (triglyceride accumulation),adipocytes; [9],1.11
327911 (antisense eG*e[5mC]*eT*eA*e[5mC]*e[5mC]*eT*eG*e[5mC]*eA*e[5mC]*eT*eG*eT*eA*eA*eG*e[5mC]*eA*e[5mC]*eT*eT*eT*eT) [compound 327911],% Activity Relative to UTC (tube formation),HuVECs; Table 57,75.9%
same,GLUT4 mRNA,Glut4; [1],48 percentage of untreated control (UTC)
same,PPAR gamma mRNA,PPARγ; Table 75,75 percentage of untreated control (UTC)
same,aP2 mRNA,aP2; [2],76 percentage of untreated control (UTC)
same,HSL mRNA,HSL; [1],71 percentage of untreated control (UTC)
same,TG (triglyceride accumulation),adipocytes; [1],59 percentage of untreated control (UTC)
327878 (antisense e[5mC]*eT*eA*eG*eT*eG*eG*eT*e[5mC]*e[5mC]*eT*eA*eA*eA*e[5mC]*eA*eT*eT*eT*e[5mC]*eA*e[5mC]) [compound 327878],% Activity Relative to UTC (tube formation),HuVECs; Table 56,57.1%
same,Glut4 (mRNA expression),Glut4; Table 15,0.69
same,PPAR gamma (mRNA expression),PPARγ; Table 15,0.97
same,AP2 (mRNA expression),aP2; Table 15,0.85
same,HSL (mRNA expression),HSL; Table 15,0.93
same,TG (triglyceride accumulation),adipocytes; [8],0.65
327899 (antisense e[5mC]*eA*eG*eT*eG*eA*eA*eT*eT*e[5mC]*eT*eA*e[5mC]*e[5mC]*eA*eG*eT*eG*e[5mC]*e[5mC]*eA*eT*eA) [compound 327899],% Activity Relative to UTC (tube formation),HuVECs; Table 57,34.5%
same,GLUT4 mRNA,Glut4; [1],14 percentage of untreated control (UTC)
same,PPAR gamma mRNA,PPARγ; Table 75,62 percentage of untreated control (UTC)
same,aP2 mRNA,aP2; [2],47 percentage of untreated control (UTC)
same,HSL mRNA,HSL; [1],27 percentage of untreated control (UTC)
same,TG (triglyceride accumulation),adipocytes; [1],25 percentage of untreated control (UTC)
327923 (antisense eG*eA*eA*eA*eG*eA*eG*eA*e[5mC]*e[5mC]*eG*eG*eT*eT*e[5mC]*eA*e[5mC]*eT*eG*eT*eG*eA) [compound 327923],% Activity Relative to UTC (tube formation),HuVECs; Table 57,48.3%
same,GLUT4 mRNA,Glut4; [1],54 percentage of untreated control (UTC)
same,PPAR gamma mRNA,PPARγ; Table 75,77 percentage of untreated control (UTC)
same,aP2 mRNA,aP2; [2],65 percentage of untreated control (UTC)
same,HSL mRNA,HSL; [1],64 percentage of untreated control (UTC)
same,TG (triglyceride accumulation),adipocytes; [1],88 percentage of untreated control (UTC)
327921 (antisense e[5mC]*eT*eT*e[5mC]*e[5mC]*eA*eG*eT*e[5mC]*eG*eG*eG*eG*eA*eT*eG*eT*eT*eT*eA*e[5mC]*eA) [compound 327921],% Activity Relative to UTC (tube formation),HuVECs; Table 57,96.6%
same,GLUT4 mRNA,Glut4; [1],36 percentage of untreated control (UTC)
same,PPAR gamma mRNA,PPARγ; Table 75,75 percentage of untreated control (UTC)
same,aP2 mRNA,aP2; [2],76 percentage of untreated control (UTC)
same,HSL mRNA,HSL; [1],76 percentage of untreated control (UTC)
same,TG (triglyceride accumulation),adipocytes; [1],56 percentage of untreated control (UTC)
327900 (antisense e[5mC]*eT*eG*e[5mC]*e[5mC]*eT*eG*eT*e[5mC]*eT*eG*eT*eG*e[5mC]*e[5mC]*eT*eG*e[5mC]*eT*eG*eT) [compound 327900],% Activity Relative to UTC (tube formation),HuVECs; Table 57,55.2%
same,GLUT4 mRNA,Glut4; [1],12 percentage of untreated control (UTC)
same,PPAR gamma mRNA,PPARγ; Table 75,55 percentage of untreated control (UTC)
same,aP2 mRNA,aP2; [2],32 percentage of untreated control (UTC)
same,HSL mRNA,HSL; [1],21 percentage of untreated control (UTC)
same,TG (triglyceride accumulation),adipocytes; [1],26 percentage of untreated control (UTC)
327927 (antisense eT*eG*eT*eA*eA*eA*e[5mC]*e[5mC]*eA*eT*eG*eA*eT*eG*eT*eG*e[5mC]*eT*eG*e[5mC]*eT*eA) [compound 327927],% Activity Relative to UTC (tube formation),HuVECs; Table 58,59.3%
same,GLUT4 mRNA,Glut4; [2],120 percentage of untreated control (UTC)
same,PPAR gamma mRNA,PPARγ,108 percentage of untreated control (UTC)
same,AP2 mRNA,aP2; [2],114 percentage of untreated control (UTC)
same,HSL mRNA,HSL; [2],120 percentage of untreated control (UTC)
same,TG (triglyceride accumulation),adipocytes; [2],125 percentage of untreated control (UTC)
327967 (antisense eA*e[5mC]*eT*eG*eT*eA*e[5mC]*eA*eA*eA*e[5mC]*eT*eA*e[5mC]*eT*eA*e[5mC]*e[5mC]*eT*e[5mC]*eA) [compound 327967],% Activity Relative to UTC (tube formation),HuVECs; Table 59,93.3%
same,Glut4 (mRNA expression),Glut4; Table 16,0.56
same,PPAR gamma (mRNA expression),PPARγ; Table 16,0.89
same,AP2 (mRNA expression),aP2; Table 16,0.86
same,HSL (mRNA expression),HSL; Table 16,0.97
same,TG (triglyceride accumulation),adipocytes; [9],0.90
327910 (antisense eT*eG*eA*eT*eA*eG*e[5mC]*e[5mC]*e[5mC]*eT*eG*eT*eA*e[5mC]*eA*eA*eT*eG*e[5mC]*eT*eG*e[5mC]*eT) [compound 327910],% Activity Relative to UTC (tube formation),HuVECs; Table 57,55.2%
same,GLUT4 mRNA,Glut4; [1],16 percentage of untreated control (UTC)
same,PPAR gamma mRNA,PPARγ; Table 75,39 percentage of untreated control (UTC)
same,aP2 mRNA,aP2; [2],35 percentage of untreated control (UTC)
same,HSL mRNA,HSL; [1],32 percentage of untreated control (UTC)
same,TG (triglyceride accumulation),adipocytes; [1],24 percentage of untreated control (UTC)
